Reference: US9458110B2, “Phenylpyrazole derivatives as potent ROCK1 and ROCK2 inhibitors” (BRISTOL-MYERS SQUIBB COMPANY, priority 2013, dated 2016)

Columns and labels:
[1] = biological target: ROCK2 (Homo sapiens (Human), UniProt O75116); experiment: ROCK assay (Caliper LABCHIP peptide phosphorylation), ROCK2; format: biochemical; conditions: 5 μM ATP, 1.5 μM peptide substrate;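 also: reaction stopped with EDTA, then phosphorylated and unphosphorylated peptide resolved by microfluidic electrophoresis, kinase inhibition computed at each compound concentration in dose-response series, DMSO under 2%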
Sequence of ROCK2 (O75116 whole entry, species assumed): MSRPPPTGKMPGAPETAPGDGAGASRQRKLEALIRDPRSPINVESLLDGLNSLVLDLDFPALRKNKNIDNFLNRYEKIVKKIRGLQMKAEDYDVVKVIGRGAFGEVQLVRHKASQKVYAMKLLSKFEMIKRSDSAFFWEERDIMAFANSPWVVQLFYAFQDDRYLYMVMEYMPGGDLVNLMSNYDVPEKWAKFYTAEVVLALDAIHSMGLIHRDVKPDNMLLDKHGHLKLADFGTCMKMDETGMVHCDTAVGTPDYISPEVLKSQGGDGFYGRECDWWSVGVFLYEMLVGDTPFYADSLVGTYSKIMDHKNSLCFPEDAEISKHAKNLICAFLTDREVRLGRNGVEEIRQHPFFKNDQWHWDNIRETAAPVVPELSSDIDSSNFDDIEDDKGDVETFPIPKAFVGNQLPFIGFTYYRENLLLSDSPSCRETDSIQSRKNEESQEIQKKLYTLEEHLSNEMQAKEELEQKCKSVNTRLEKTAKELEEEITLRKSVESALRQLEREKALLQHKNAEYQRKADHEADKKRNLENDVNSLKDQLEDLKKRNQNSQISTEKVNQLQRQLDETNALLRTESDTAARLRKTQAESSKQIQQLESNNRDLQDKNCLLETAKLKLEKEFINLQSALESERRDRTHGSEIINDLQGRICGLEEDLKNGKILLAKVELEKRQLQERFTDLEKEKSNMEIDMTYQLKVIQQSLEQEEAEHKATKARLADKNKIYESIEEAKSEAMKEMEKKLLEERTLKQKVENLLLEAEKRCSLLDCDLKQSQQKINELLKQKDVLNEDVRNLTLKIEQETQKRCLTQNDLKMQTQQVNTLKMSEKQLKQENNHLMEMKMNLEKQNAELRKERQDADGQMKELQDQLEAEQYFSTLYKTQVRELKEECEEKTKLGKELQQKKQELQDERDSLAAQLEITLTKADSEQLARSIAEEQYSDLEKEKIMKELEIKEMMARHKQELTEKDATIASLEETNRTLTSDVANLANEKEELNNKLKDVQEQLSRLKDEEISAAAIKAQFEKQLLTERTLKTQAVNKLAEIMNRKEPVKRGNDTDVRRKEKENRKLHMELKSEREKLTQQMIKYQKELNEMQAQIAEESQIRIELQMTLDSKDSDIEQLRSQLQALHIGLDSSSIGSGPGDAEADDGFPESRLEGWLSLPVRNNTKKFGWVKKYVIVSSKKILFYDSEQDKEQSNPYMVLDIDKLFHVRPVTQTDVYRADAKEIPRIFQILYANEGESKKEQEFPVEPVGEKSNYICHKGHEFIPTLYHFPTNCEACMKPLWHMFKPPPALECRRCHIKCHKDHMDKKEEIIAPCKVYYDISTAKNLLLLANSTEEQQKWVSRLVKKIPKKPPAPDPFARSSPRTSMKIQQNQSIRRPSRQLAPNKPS

[2] = biological target: ROCK1 (Homo sapiens (Human), UniProt Q13464); experiment: ROCK assay (Caliper LABCHIP peptide phosphorylation), ROCK1; format: biochemical; conditions: 5 μM ATP, 1.5 μM peptide substrate;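 also: Read-out is separation of phosphorylated from unphosphorylated peptide, with kinase activity inhibition computed at every concentration of a dose-response series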
Sequence of ROCK1 (Q13464 whole entry, species assumed): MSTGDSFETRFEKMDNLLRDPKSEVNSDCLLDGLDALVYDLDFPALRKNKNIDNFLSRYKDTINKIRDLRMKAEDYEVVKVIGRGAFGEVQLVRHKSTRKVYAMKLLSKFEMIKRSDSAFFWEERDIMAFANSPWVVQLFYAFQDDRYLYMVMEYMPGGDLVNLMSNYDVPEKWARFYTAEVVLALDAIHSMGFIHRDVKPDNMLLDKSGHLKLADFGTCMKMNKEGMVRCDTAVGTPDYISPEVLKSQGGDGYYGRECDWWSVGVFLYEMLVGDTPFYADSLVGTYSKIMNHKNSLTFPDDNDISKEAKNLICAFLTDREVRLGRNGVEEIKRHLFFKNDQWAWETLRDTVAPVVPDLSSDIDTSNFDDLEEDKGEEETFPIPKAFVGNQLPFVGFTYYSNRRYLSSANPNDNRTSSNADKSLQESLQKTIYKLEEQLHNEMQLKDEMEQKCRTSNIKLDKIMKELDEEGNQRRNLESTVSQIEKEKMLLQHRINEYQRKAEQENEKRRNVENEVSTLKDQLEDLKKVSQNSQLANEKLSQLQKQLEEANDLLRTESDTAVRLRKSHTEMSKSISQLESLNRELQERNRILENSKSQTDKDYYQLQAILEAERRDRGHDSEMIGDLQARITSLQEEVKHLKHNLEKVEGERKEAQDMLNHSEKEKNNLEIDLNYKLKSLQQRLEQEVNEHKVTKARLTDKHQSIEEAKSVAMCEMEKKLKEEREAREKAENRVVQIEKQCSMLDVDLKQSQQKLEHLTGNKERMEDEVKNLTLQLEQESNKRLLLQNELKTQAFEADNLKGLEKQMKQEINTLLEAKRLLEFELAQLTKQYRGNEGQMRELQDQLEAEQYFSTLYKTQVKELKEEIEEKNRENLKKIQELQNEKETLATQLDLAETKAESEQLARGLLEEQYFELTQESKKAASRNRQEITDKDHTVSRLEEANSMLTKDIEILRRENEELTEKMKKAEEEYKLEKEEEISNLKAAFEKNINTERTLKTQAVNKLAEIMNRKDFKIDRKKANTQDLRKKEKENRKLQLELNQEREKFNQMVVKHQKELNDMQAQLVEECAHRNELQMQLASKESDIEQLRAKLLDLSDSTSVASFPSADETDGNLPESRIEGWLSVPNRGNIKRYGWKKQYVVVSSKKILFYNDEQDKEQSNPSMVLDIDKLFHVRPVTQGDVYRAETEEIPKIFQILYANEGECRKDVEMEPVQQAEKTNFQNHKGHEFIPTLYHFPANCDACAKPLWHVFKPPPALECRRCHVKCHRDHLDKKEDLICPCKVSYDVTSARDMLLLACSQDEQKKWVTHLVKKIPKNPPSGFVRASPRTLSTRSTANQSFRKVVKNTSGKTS

| IC50 [1] [µM] | IC50 [2] [µM] | Compound |
| --- | --- | --- |
| 0.19 | 0.472 | C[C@@H](NC(=O)c1cc(F)c(-c2cn[nH]c2)cc1F)c1ccccc1 [Example 186, 2,5-difluoro-N-[(1R)-1-phenylethyl]-4-(1H-pyrazol-4-yl)benzamide] |
| 0.208 | > 2 | C[C@@H](NC(=O)c1ccc(-c2cn[nH]c2)c(S(C)(=O)=O)c1)c1ccccc1 [Example 188, 3-methanesulfonyl-N-[(1R)-1-phenylethyl]-4-(1H-pyrazol-4-yl)benzamide] |
| 0.0167 | 0.0371 | COc1cc(-c2cn[nH]c2)c(F)cc1C(=O)N[C@H](C)c1ccccc1 [Example 190, 5-fluoro-2-methoxy-N-[(1R)-1-phenylethyl]-4-(1H-pyrazol-4-yl)benzamide] |
| 0.0746 | 0.205 | CCOc1cc(C(=O)N[C@H](C)c2ccc(F)cc2)ccc1-c1cn[nH]c1 [Example 191, 3-ethoxy-N-[(1R)-1-(4-fluorophenyl)ethyl]-4-(1H-pyrazol-4-yl)benzamide] |
| 0.0114 | 0.0508 | CCOc1cc(C(=O)N[C@H](CO)c2ccccc2)ccc1-c1cn[nH]c1 [Example 192, 3-ethoxy-N-[(1S)-2-hydroxy-1-phenylethyl]-4-(1H-pyrazol-4-yl)benzamide] |
| 0.289 | 0.873 | C[C@@H](NC(=O)c1ccc(-c2cn[nH]c2)c(C#N)c1)c1ccc(F)cc1 [Example 193, 3-cyano-N-[(1R)-1-(4-fluorophenyl)ethyl]-4-(1H-pyrazol-4-yl)benzamide] |
| 0.152 | 0.51 | N#Cc1cc(C(=O)N[C@H](CO)c2ccccc2)ccc1-c1cn[nH]c1 [Example 194, 3-cyano-N-[(1S)-2-hydroxy-1-phenylethyl]-4-(1H-pyrazol-4-yl)benzamide] |
| 0.016 | 0.0827 | CCOc1cc(C(=O)N[C@H](CO)c2c(F)cccc2F)ccc1-c1cn[nH]c1 [Example 195, N-[(1S)-1-(2,6-difluorophenyl)-2-hydroxyethyl]-3-ethoxy-4-(1H-pyrazol-4-yl)benzamide] |
| 0.0176 | 0.0526 | Cc1cc(C(=O)N[C@H](CO)c2c(F)cccc2F)ccc1-c1cn[nH]c1 [Example 197, N-[(1S)-1-(2,6-difluorophenyl)-2-hydroxyethyl]-3-methyl-4-(1H-pyrazol-4-yl)benzamide] |
| 0.00666 | 0.0192 | COc1ccc(F)c(C(C)NC(=O)c2ccc(-c3cn[nH]c3)cc2OC)c1 (centres unmarked) [Example 203, N-[1-(2-fluoro-5-methoxyphenyl)ethyl]-2-methoxy-4-(1H-pyrazol-4-yl)benzamide] |
| 0.00562 | 0.345 | COc1cc(-c2cn[nH]c2)ccc1C(=O)NC(CO)c1ccccc1F (centres unmarked) [Example 205, N-[1-(2-fluorophenyl)-2-hydroxyethyl]-2-methoxy-4-(1H-pyrazol-4-yl)benzamide] |
| 0.00277 | 0.007 | COc1cc(-c2cn[nH]c2)ccc1C(=O)N[C@H](C)c1ccc(F)cc1 [Example 206, N-[(1R)-1-(4-fluorophenyl)ethyl]-2-methoxy-4-(1H-pyrazol-4-yl) benzamide] |
| 0.0152 | 0.174 | COc1cc(-c2cn[nH]c2)ccc1C(=O)NC(CCN(C)C)c1ccccc1 (centres unmarked) [Example 208, N-[3-(dimethylamino)-1-phenylpropyl]-2-methoxy-4-(1H-pyrazol-4-yl)benzamide] |
| 0.00278 | 0.00655 | COc1cc(-c2cn[nH]c2)ccc1C(=O)N[C@H](CCO)c1ccccc1 [Example 209, N-[(1R)-3-hydroxy-1-phenylpropyl]-2-methoxy-4-(1H-pyrazol-4-yl)benzamide] |

Continued, compound first:

| Compound | IC50 [1] [µM] | IC50 [2] [µM] |
| --- | --- | --- |
| COc1cc(-c2c[nH]nc2C)ccc1C(=O)NCc1c(F)cccc1Cl [Example 184, N-[(2-chloro-6-fluorophenyl)methyl]-2-methoxy-4-(3-methyl-1H-pyrazol-4-yl)benzamide] | 0.101 | 0.0142 |
| COc1cc(-c2cn[nH]c2)ccc1C(=O)NCc1c(F)cccc1Cl [Example 185, N-[(2-chloro-6-fluorophenyl)methyl]-2-methoxy-4-(1H-pyrazol-4-yl)benzamide] | 0.00648 | 0.0263 |
| COc1cc(C(=O)NC(Cc2ccccc2)C(C)=O)ccc1-c1cn[nH]c1 (centres unmarked) [Example 187, 3-methoxy-N-(3-oxo-1-phenylbutan-2-yl)-4-(1H-pyrazol-4-yl)benzamide] | 0.014 | 0.023 |
| COc1cc(-c2c[nH]nc2C(F)(F)F)ccc1C(=O)NCc1c(F)cccc1Cl [Example 189, N-[(2-chloro-6-fluorophenyl)methyl]-2-methoxy-4-[3-(trifluoromethyl)-1H-pyrazol-4-yl]benzamide] | 0.0425 | 0.0394 |
| O=C(N[C@H](CO)c1c(F)cccc1F)c1ccc(-c2cn[nH]c2)c(OC(F)F)c1 [Example 196, 3-(difluoro-methoxy)-N-[(1S)-1-(2,6-difluorophenyl)-2-hydroxyethyl]-4-(1H-pyrazol-4-yl)benzamide] | 0.0138 | 0.0637 |
| N#Cc1cc(C(=O)N[C@H](CO)c2c(F)cccc2F)ccc1-c1cn[nH]c1 [Example 198, 3-cyano-N-[(1S)-1-(2,6-difluorophenyl)-2-hydroxyethyl]-4-(1H-pyrazol-4-yl)benzamide] | 0.14 | 0.397 |
| COc1c(-c2cn[nH]c2)ccc(C(=O)N[C@H](CO)c2c(F)cccc2F)c1F [Example 199, N-[(1S)-1-(2,6-difluorophenyl)-2-hydroxyethyl]-2-fluoro-3-methoxy-4-(1H-pyrazol-4-yl)benzamide] | 0.0216 | 0.219 |
| O=C(N[C@H](CO)c1c(F)cccc1F)c1ccc(-c2cn[nH]c2)c(Cl)c1 [Example 200, 3-chloro-N-[(1S)-1-(2,6-difluorophenyl)-2-hydroxyethyl]-4-(1H-pyrazol-4-yl)benzamide] | 0.0123 | 0.0423 |
| COc1cc(-c2cn[nH]c2)ccc1C(=O)N[C@H](CO)c1c(F)cccc1F [Example 201, N-[(1S)-1-(2,6-difluorophenyl)-2-hydroxyethyl]-2-methoxy-4-(1H-pyrazol-4-yl)benzamide] | 0.0115 | 0.362 |
| O=C(N[C@H](CO)c1c(F)cccc1F)c1ccc(-c2cn[nH]c2)c(C(F)(F)F)c1 [Example 202, N-[(1S)-1-(2,6-difluorophenyl)-2-hydroxyethyl]-4-(1H-pyrazol-4-yl)-3-(trifluoromethyl) benzamide] | 0.0557 | 0.193 |
| COc1cc(-c2cn[nH]c2)ccc1C(=O)N[C@H](CO)Cc1ccccc1 [Example 204, N-[(2S)-1-hydroxy-3-phenylpropan-2-yl]-2-methoxy-4-(1H-pyrazol-4-yl)benzamide] | 0.0152 | 0.0098 |
| COc1cc(-c2cn[nH]c2)ccc1C(=O)NCc1c(F)cccc1F [Example 207, N-[(2,6-difluorophenyl)methyl]-2-methoxy-4-(1H-pyrazol-4-yl)benzamide] | 0.00439 | 0.00425 |
| COc1cc(-c2cn[nH]c2)ccc1C(=O)NCc1ccc(F)cc1Cl [Example 210, N-[(2-chloro-4-fluorophenyl)methyl]-2-methoxy-4-(1H-pyrazol-4-yl)benzamide] | 0.00175 | 0.00326 |
| O=C(NCc1ccccc1)c1ccc(-c2cn[nH]c2)cc1CCO [Example 211, N-benzyl-2-(2-hydroxyethyl)-4-(1H-pyrazol-4-yl) benzamide] | 6.51 | 1.88 |
